The record followed here is patent publication US20140309210A1, “INDAZOLE COMPOUNDS, COMPOSITIONS AND METHODS OF USE THEREOF” (Genentech, Inc., priority 2011, published 2014).

Structures are written as SMILES.

This test deals with T1, purified ITK (Invitrogen PV3875) (Homo sapiens, UniProt Q08881).
T1 construct: purchased Invitrogen PV3875
T1 sequence (Q08881 1-620): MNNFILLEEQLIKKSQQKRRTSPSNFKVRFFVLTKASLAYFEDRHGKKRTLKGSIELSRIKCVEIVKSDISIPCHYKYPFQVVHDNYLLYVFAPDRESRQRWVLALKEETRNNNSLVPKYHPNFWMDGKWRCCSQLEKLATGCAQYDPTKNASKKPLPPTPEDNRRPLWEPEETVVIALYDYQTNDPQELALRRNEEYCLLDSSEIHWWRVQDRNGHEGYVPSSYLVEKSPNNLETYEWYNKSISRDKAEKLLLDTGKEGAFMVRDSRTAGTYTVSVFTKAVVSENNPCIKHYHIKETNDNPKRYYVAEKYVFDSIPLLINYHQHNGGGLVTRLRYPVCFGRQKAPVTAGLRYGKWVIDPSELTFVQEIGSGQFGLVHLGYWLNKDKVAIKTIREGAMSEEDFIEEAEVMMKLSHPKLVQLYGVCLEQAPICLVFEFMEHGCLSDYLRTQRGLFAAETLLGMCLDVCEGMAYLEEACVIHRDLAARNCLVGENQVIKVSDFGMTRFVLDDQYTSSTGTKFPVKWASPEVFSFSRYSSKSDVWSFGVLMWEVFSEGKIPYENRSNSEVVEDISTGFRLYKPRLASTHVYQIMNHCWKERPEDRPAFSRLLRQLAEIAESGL
The test is described as follows: ITK peptide phosphorylation assay (Caliper LabChip or LCMS). The format is biochemical. The conditions noted are these: Table 1, Examples 141-279. The gist of the method:
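Ki values come from Morrison quadratic fits of activity versus inhibitor concentration, adjusted for ATP-competitive inhibition against ATP/Km,app. Substrate and phosphopeptide from purified ITK reactions were resolved either microfluidically (Caliper, EDTA stop) or by LC-MS MRM (TCA stop).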
`CN(C)CCC(c1cccc(C(F)(F)F)c1)n1cc(NC(=O)c2n[nH]c3cc(-c4cn[nH]c4)ccc23)cn1` (centres unmarked) [Example 248, N-[1-[3-(dimethylamino)-1-[3-(trifluorometh-yl)phenyl]propyl]py-razol-4-yl]-6-(1H-pyrazol-4-yl)-1H-indazole-3-carboxamide] yielded a Ki of 0.128 nM. This counts as sub-nanomolar.

Turning to `CN(C)CCC(c1cccc(Cl)c1)n1cc(NC(=O)c2n[nH]c3cc(-c4cn[nH]c4)ccc23)cn1` (centres unmarked) [Example 249, N-[1-[1-(3-chlorophenyl)-3-(dimethylami-no)propyl]pyrazol-4-yl]-6-(1H-pyrazol-4-yl)-1H-indazole-3-carboxamide], the Ki was 0.06 nM.

For the molecule `N#Cc1cccc(Cn2cc(NC(=O)c3n[nH]c4cc(C(F)(F)F)ccc34)cn2)c1` [Example 250, N-[1-[(3-cyanophenyl)meth-yl]pyrazol-4-yl]-6-(trifluoromethyl)-1H-indazole-3-carboxamide], the Ki came to 103 nM.

The molecule `O=C(Nc1cnn(CC2CC3CCC2C3)c1)c1n[nH]c2cc(-c3cn[nH]c3)ccc12` (centres unmarked) [Example 251, N-[1-(norbornan-2-ylmethyl)pyrazol-4-yl]-6-(1H-pyrazol-4-yl)-1H-indazole-3-carboxamide] gave a Ki of 5 nM.

As to `CC(C)CN1CCOC(Cn2cc(NC(=O)c3n[nH]c4cc(-c5cn[nH]c5)ccc34)cn2)C1` (centres unmarked) [Example 252, N-[1-[(4-isobutylmorpholin-2-yl)methyl]pyrazol-4-yl]-6-(1H-pyrazol-4-yl)-1H-indazole-3-carboxamide], the Ki came out at 3.58 nM.

Regarding `CC1(Cn2cc(NC(=O)c3n[nH]c4cc(-c5cn[nH]c5)ccc34)cn2)COC1` [Example 253, N-[1-[(3-methyloxetan-3-yl)methyl]pyrazol-4-yl]-6-(1H-pyrazol-4-yl)-1H-indazole-3-carboxamide], affinity was put at a Ki of 36.7 nM.

The molecule `CN1CCC(Cn2cc(NC(=O)c3n[nH]c4cc(-c5cn[nH]c5)ccc34)cn2)C1` (centres unmarked) [Example 254, N-[1-[(1-methylpyrrolidin-3-yl)methyl]pyrazol-4-yl]-6-(1H-pyrazol-4-yl)-1H-indazole-3-carboxamide] came in with an inhibition constant (Ki) of 6.5 nM.

For the molecule `COC(=O)C(c1ccccc1)n1cc(NC(=O)c2n[nH]c3ccccc23)cn1` (centres unmarked) [Example 255, methyl 2-[4-(1H-indazole-3-carbonylamino)py-razol-1-yl]-2-phenyl-acetate], the Ki came to 38.3 nM. Compared with the last molecule, the Ki is about 5.9-fold higher.

Molecule `O=C(Nc1cnn(C(CO)c2ccccc2)c1)c1n[nH]c2ccccc12` (centres unmarked) [Example 256, N-[1-(2-hydroxy-1-phenyl-ethyl)pyrazol-4-yl]-1H-indazole-3-carboxamide] registered a Ki of 146 nM. This Ki lies about 3.8-fold higher than the previous one.

With `O=C(Nc1cnn(C(CO)c2ccccc2)c1)c1n[nH]c2ccccc12` (centres unmarked) [Example 257, N-[1-(2-hydroxy-1-phenyl-ethyl)pyrazol-4-yl]-1H-indazole-3-carboxamide], the affinity corresponds to a Ki of 35.5 nM.

`CN1CCC(Cn2cc(NC(=O)c3n[nH]c4cc(-c5cn[nH]c5)ccc34)cn2)CC1` [Example 258, N-[1-[(1-methyl-4-piperidyl)meth-yl]pyrazol-4-yl]-6-(1H-pyrazol-4-yl)-1H-indazole-3-carboxamide] showed a Ki of 5.68 nM.

`O=C(Nc1cnn(CC2CN(Cc3ccccc3)CCO2)c1)c1n[nH]c2cc(-c3cn[nH]c3)ccc12` (centres unmarked) [Example 259, N-[1-[(4-benzylmorpholin-2-yl)methyl]pyrazol-4-yl]-6-(1H-pyrazol-4-yl)-1H-indazole-3-carboxamide] displayed a Ki of 2.76 nM. Compared with the last molecule, the Ki is about 2.1-fold lower.

In turn, `N#CCn1cc(NC(=O)c2n[nH]c3cc(-c4cn[nH]c4)ccc23)cn1` [Example 260, N-[1-(cyanomethyl)py-razol-4-yl]-6-(1H-pyrazol-4-yl)-1H-indazole-3-carboxamide] yielded a Ki of 11.9 nM.

`N#CCCn1cc(NC(=O)c2n[nH]c3cc(-c4cn[nH]c4)ccc23)cn1` [Example 261, N-[1-(2-cyanoethyl)py-razol-4-yl]-6-(1H-pyrazol-4-yl)-1H-indazole-3-carboxamide]: the Ki came out at 4.81 nM.

`O=C(Nc1cnn(CC2CNC2)c1)c1n[nH]c2cc(-c3cn[nH]c3)ccc12` [Example 262, N-[1-(azetidin-3-ylmethyl)pyrazol-4-yl]-6-(1H-pyrazol-4-yl)-1H-indazole-3-carboxamide] returned a Ki of 4.69 nM.

Molecule `CNCCC(c1ccccc1)n1cc(NC(=O)c2n[nH]c3ccccc23)cn1` (centres unmarked) [Example 263, N-[1-[3-(methylamino)-1-phenyl-propyl]pyrazol-4-yl]-1H-indazole-3-carboxamide] came in with a Ki of 5.14 nM.

The molecule `CNCCC(c1ccccc1)n1cc(NC(=O)c2n[nH]c3ccccc23)cn1` (centres unmarked) [Example 264, N-[1-[3-(methylamino)-1-phenyl-propyl]pyrazol-4-yl]-1H-indazole-3-carboxamide] displayed a Ki of 55.5 nM.

Regarding `CC(=O)N(C)CCC(c1ccccc1)n1cc(NC(=O)c2n[nH]c3ccccc23)cn1` (centres unmarked) [Example 265, N-[1-[3-[acetyl(meth-yl)amino]-1-phenyl-propyl]pyrazol-4-yl]-1H-indazole-3-carboxamide], affinity was put at a Ki of 23.8 nM.

For `CC(=O)N(C)CCC(c1ccccc1)n1cc(NC(=O)c2n[nH]c3ccccc23)cn1` (centres unmarked) [Example 266, N-[1-[3-[acetyl(methyl)a-mino]-1-phenyl-propyl]pyrazol-4-yl]-1H-indazole-3-carboxamide], the Ki turned out to be 100 nM.

`CN(C)CCC(c1ccccc1)n1cc(NC(=O)c2n[nH]c3ccccc23)cn1` (centres unmarked) [Example 267, N-[1-[3-(dimethylamino)-1-phenyl-propyl]pyrazol-4-yl]-1H-indazole-3-carboxamide] displayed a Ki of 76.9 nM.

`CN(C)CCC(c1ccccc1)n1cc(NC(=O)c2n[nH]c3ccccc23)cn1` (centres unmarked) [Example 268, N-[1-[3-(dimethylamino)-1-phenyl-propyl]pyrazol-4-yl]-1H-indazole-3-carboxamide] returned a Ki of 5.98 nM.

`CN(CCC(c1ccccc1)n1cc(NC(=O)c2n[nH]c3ccccc23)cn1)CC(F)(F)F` (centres unmarked) [Example 269, N-[1-[3-[methyl(2,2,2-trifluoroethyl)a-mino]-1-phenyl-propyl]pyrazol-4-yl]-1H-indazole-3-carboxamide] registered a Ki of 105 nM.

For `CN(CCC(c1ccccc1)n1cc(NC(=O)c2n[nH]c3ccccc23)cn1)CC(F)(F)F` (centres unmarked) [Example 270, N-[1-[3-[methyl(2,2,2-trifluoroethyl)a-mino]-1-phenyl-propyl]pyrazol-4-yl]-1H-indazole-3-carboxamide], affinity was put at a Ki of 8.92 nM.

`CN(CCC(c1ccccc1)n1cc(NC(=O)c2n[nH]c3ccccc23)cn1)S(C)(=O)=O` (centres unmarked) [Example 271] gave a Ki of 6.92 nM.

For `CN(CCC(c1ccccc1)n1cc(NC(=O)c2n[nH]c3ccccc23)cn1)S(C)(=O)=O` (centres unmarked) [Example 272, N-[1-[3-[methyl(methyl-sulfonyl)amino]-1-phenyl-propyl]pyrazol-4-yl]-1H-indazole-3-carboxamide], the Ki came to 41.6 nM.

In the case of `CN(CCC(c1ccccc1)n1cc(NC(=O)c2n[nH]c3ccccc23)cn1)CC(F)F` (centres unmarked) [Example 273, N-[1-[3-[2,2-difluoroethyl(meth-yl)amino]-1-phenyl-propyl]pyrazol-4-yl]-1H-indazole-3-carboxamide], the Ki was 8.3 nM. This Ki lies about 5-fold lower than the previous one.

`CN(CCC(c1ccccc1)n1cc(NC(=O)c2n[nH]c3ccccc23)cn1)CC(F)F` (centres unmarked) [Example 274, N-[1-[3-[2,2-difluoroethyl(meth-yl)amino]-1-phenyl-propyl]pyrazol-4-yl]-1H-indazole-3-carboxamide] had a Ki of 84.8 nM.

Molecule `CN(C)CC(c1ccccc1)n1cc(NC(=O)c2n[nH]c3ccccc23)cn1` (centres unmarked) [Example 275, N-[1-[2-(dimethylamino)-1-phenyl-ethyl]pyrazol-4-yl]-1H-indazole-3-carboxamide] displayed a Ki of 7.83 nM. Compared with the last molecule, the Ki is about 11-fold lower.

In turn, `CN(C)CC(c1ccccc1)n1cc(NC(=O)c2n[nH]c3ccccc23)cn1` (centres unmarked) [Example 276, N-[1-[2-(dimethylamino)-1-phenyl-ethyl]pyrazol-4-yl]-1H-indazole-3-carboxamide] had an inhibition constant Ki of 152 nM.

With `CS(=O)(=O)CCC(c1ccccc1)n1cc(NC(=O)c2n[nH]c3ccccc23)cn1` (centres unmarked) [Example 277, N-[1-(3-methylsulfonyl-1-phenyl-propyl)pyrazol-4-yl]-1H-indazole-3-carboxamide], the Ki was determined as 114 nM.

Molecule `CN(C)CCC(c1ccccc1)n1cc(NC(=O)c2n[nH]c3cc(-c4cn[nH]c4)cnc23)cn1` (centres unmarked) [Example 278, N-[1-[3-(dimethylamino)-1-phenyl-propyl]pyrazol-4-yl]-6-(1H-pyrazol-4-yl)-1H-pyrazolo[4,3-b]pyridine-3-carboxamide] showed a Ki of 1.29 nM.

In the case of `CN(C)CCC(c1ccccc1)n1cc(NC(=O)c2n[nH]c3cc(-c4cn[nH]c4)cnc23)cn1` (centres unmarked) [Example 279, N-[1-[3-(dimethylamino)-1-phenyl-propyl]pyrazol-4-yl]-6-(1H-pyrazol-4-yl)-1H pyrazolo[4,3-b]pyridine-3-carboxamide], the Ki is 36.7 nM.
